Experimental data reported in US8383640B2, “Substituted pyrimidine ether compounds and use thereof” (priority 2007, dated 2013).
Like-named read-outs stand apart in the source and are kept apart here.

Tests used:
cucumber downy mildew = assay: Fungicidal activity in vivo, cucumber downy mildew; details: plants sprayed, scored after 1 week
Protocol: (§1) Determination of Fungicidal Activity In Vivo:
(§2) Compounds were disolved into acetone to receive stock solution. Deionized water containing 0.1% Tween 80 was added in the previous solution to receive 20 ml test solution. Plants are sprayed by using a turntable sprayer. After 24 hours, plants were innoculated with a conidial suspension. Plants were then transferred into a dew chamber [R.H. (relative humidity)>95%] for infection. After this treatment, plants were removed from the chamber to the greenhouse for normal maintaining, After the infection period, the plants were placed in the greenhouse. After 1 week, the plants were scored for disease control.

tomato late blight = type: cell-based; details: in vitro, 25 mg/L, 24 hours incubation
cucumber anthracnose = assay: Fungicidal activity in vivo, cucumber anthracnose; details: plants sprayed, scored after 1 week
Protocol: as §1, §2

corn rust = assay: Fungicidal activity in vivo, corn rust; details: 25 mg/L, plants sprayed, scored after 1 week
Protocol: as §1, §2

rice blast = type: cell-based; details: in vitro, 24 hours incubation
carmine spider mite eggs = assay: Inhibition activity on carmine spider mite eggs; type: in vivo
[1] = test system: mite (Tetranychus cinnabarinus); assay: Acaricidal activity, airbrush spray, mite; details: mortality after 2-3 days
Protocol: Compounds were dissolved in mixed solvent (acetone: methanol=1:1), and diluted to required concentration with water containing 0.1% of Tween 80.
The second instar larvae of armyworm (Spodoptera exigua), diamond backmoth (Plutella xylostella), green peach aphids (Myzus persicae) and mite (Tetranychus cinnabarinus) were used in biological test. The method was employed either spraying by airbrush. A test solution (0.5 ml) was sprayed at the pressure of 0.7 kg/cm^2. Percent mortality was determined after 2-3 days.

[2] = test system: nymph of carmine spider mite; assay: Control on nymph of carmine spider mite; type: in vivo
[3] = test system: diamond backmoth (Plutella xylostella); assay: Insecticidal activity, airbrush spray, diamond backmoth; type: in vivo; details: 600 mg/L, mortality after 2-3 days
[4] = test system: armyworm (Spodoptera exigua); assay: Insecticidal activity, airbrush spray, armyworm; type: in vivo; details: 600 mg/L, mortality after 2-3 days
cucumber grey mold = assay: Fungicidal activity in vitro, cucumber grey mold; type: cell-based; details: 2.8 mg/L, 24 hours incubation
wheat powdery mildew = assay: Fungicidal activity in vivo, wheat powdery mildew; details: plants sprayed, scored after 1 week
Protocol: as §1, §2

| Compound | control of cucumber downy mildew (cucumber downy mildew; 400 mg/L) [%] | control of tomato late blight (tomato late blight) [%] | control of cucumber anthracnose (cucumber anthracnose; 25 mg/L) [%] | control of cucumber anthracnose (cucumber anthracnose; 400 mg/L) [%] | control of rice blast (rice blast; 8.3 mg/L) | control of rice blast (rice blast; 25 mg/L) [%] | control of mite ([1]; 600 mg/L) [%] | further results |
| --- | --- | --- | --- | --- | --- | --- | --- | --- |
| COC=C(C(=O)OC)c1ccccc1COc1cc(C)nc(Nc2ccccc2)n1 [Compound 19] | 100 | 100 | 100 | 100 | 100% | 100 | – | control of cucumber downy mildew (cucumber downy mildew; 25 mg/L): 100%; control of corn rust (corn rust): 100%; control of rice blast (rice blast; 2.8 mg/L): 100% |
| COC=C(C(=O)OC)c1ccccc1COc1cc(C(F)(F)F)nc(Nc2ccccc2)n1 [Compound 20] | 100 | 100 | 100 | 100 | 100% | 100 | 100 | inhibition activity on carmine spider mite eggs (carmine spider mite eggs; 5 mg/L): 80%; inhibition activity on carmine spider mite eggs (carmine spider mite eggs; 10 mg/L): 100%; control of mite ([1]; 150 mg/L): 100%; control of rice blast (rice blast; 2.8 mg/L): 100%; control on nymph of carmine spider mite ([2]; 10 mg/L): 90%; control on nymph of carmine spider mite ([2]; 20 mg/L): 100% |
| COC=C(C(=O)OC)c1ccccc1COc1cc(C2CC2)nc(Nc2ccccc2)n1 [Compound 25] | 100 | 100 | 100 | 100 | about 80% | 100 | 100 | control of cucumber downy mildew (cucumber downy mildew; 25 mg/L): 100%; control of diamond backmoth [3]: 100%; control of corn rust (corn rust): 100% |
| COC=C(C(=O)OC)c1ccccc1COc1nc(Nc2ccccc2)nc(C)c1C [Compound 41] | 100 | 100 | 100 | 100 | about 80% | 100 | – | control of cucumber downy mildew (cucumber downy mildew; 25 mg/L): 100%; control of corn rust (corn rust): 100%; control of rice blast (rice blast; 2.8 mg/L): about 80% |
| CO/N=C(/C(=O)OC)c1ccccc1COc1cc(C(F)(F)F)nc(Nc2ccccc2)n1 [Compound 229] | 100 | 100 | – | – | about 80% | – | 100 | control of armyworm [4]: 100% |
| CON=C(C(=O)OC)c1ccccc1COc1cc(C2CC2)nc(Nc2ccccc2)n1 [Compound 232] | 100 | 100 | – | 100 | about 80% | 100 | – | – |
| COC(=O)N(OC)c1ccccc1COc1cc(C(F)(F)F)nc(Nc2ccccc2)n1 [Compound 424] | 100 | 100 | – | 100 | – | – | – | control of armyworm [4]: 100% |
| CNC(=O)N(OC)c1ccccc1COc1cc(Br)nc(Nc2ccccc2)n1 [Compound 475] | – | – | – | – | about 80% | 100 | – | control of armyworm [4]: 100% |
| COC(=O)N(OC)c1ccccc1COc1cc(C2CC2)nc(Nc2ccccc2)n1 [Compound 664] | 100 | 100 | – | – | about 80% | 100 | – | – |
| CNC(=O)C(=NOC)c1ccccc1COc1cc(C2CC2)nc(Nc2ccccc2)n1 [Compound 665] | – | – | 100 | – | about 80% | – | – | control of corn rust (corn rust): 100% |
| CNC(=O)N(OC)c1ccccc1COc1cc(C2CC2)nc(Nc2ccccc2)n1 [Compound 666] | – | – | – | – | 100% | – | – | – |
| CON=C(C(=O)OC)c1ccccc1COc1nc(Nc2ccccc2)nc(C)c1C [Compound 667] | 100 | 100 | – | 100 | 100% | 100 | – | control of diamond backmoth [3]: 100%; control of cucumber grey mold (cucumber grey mold): about 50%; control of rice blast (rice blast; 2.8 mg/L): about 80% |
| COC(=O)N(OC)c1ccccc1COc1nc(Nc2ccccc2)nc(C)c1C [Compound 668] | 100 | 100 | – | 100 | about 80% | 100 | – | – |
| CNC(=O)C(=NOC)c1ccccc1COc1nc(Nc2ccccc2)nc(C)c1C [Compound 669] | – | – | 100 | – | – | – | – | control of corn rust (corn rust): 100% |
| CNC(=O)N(OC)c1ccccc1COc1nc(Nc2ccccc2)nc(C)c1C [Compound 670] | – | – | 100 | – | about 80% | – | – | – |
| CON=C(C(=O)OC)c1ccccc1COc1cc(C)nc(Nc2ccccc2)n1 [Compound 676] | – | – | – | – | 100% | – | – | control of rice blast (rice blast; 2.8 mg/L): about 80% |
| COC(=O)N(OC)c1ccccc1COc1cc(C)nc(Nc2ccccc2)n1 [Compound 677] | – | – | 100 | – | 100% | – | – | – |
| CNC(=O)C(=NOC)c1ccccc1COc1cc(C)nc(Nc2ccccc2)n1 [Compound 678] | – | – | 100 | – | – | – | – | – |
| COC=C(C(=O)OC)c1ccccc1COc1cc(C(F)(F)F)nc(N(C)C)n1 [Compound 680] | – | – | – | – | – | – | – | control of wheat powdery mildew (wheat powdery mildew; 25 mg/L): 98%; control of wheat powdery mildew (wheat powdery mildew; 400 mg/L): 100% |
| COC=C(C(=O)OC)c1ccccc1COc1cc(C(F)(F)F)nc(NC(C)C)n1 [Compound 682] | – | – | – | – | – | – | 100 | – |
| COC=C(C(=O)OC)c1ccccc1COc1cc(C(F)(F)F)nc(Nc2cccnc2Cl)n1 [Compound 691] | – | – | – | – | – | – | 100 | control of mite ([1]; 40 mg/L): 100% |
| COC=C(C(=O)OC)c1ccccc1COc1cc(C(F)(F)F)nc(Nc2ccc(C)cc2C)n1 [Compound 693] | – | – | – | – | – | – | 100 | – |
| COC=C(C(=O)OC)c1ccccc1COc1cc(C(F)(F)F)nc(Nc2cccc(Cl)c2Cl)n1 [Compound 694] | – | – | – | – | – | – | 100 | control of mite ([1]; 40 mg/L): 100% |
| COC=C(C(=O)OC)c1ccccc1COc1cc(C(F)(F)F)nc(Nc2ccc(C)c(C)c2)n1 [Compound 697] | – | – | – | – | – | – | 100 | – |
| COC=C(C(=O)OC)c1ccccc1COc1cc(C(F)(F)F)nc(NC2CCCCC2)n1 [Compound 701] | – | – | – | – | – | – | – | control of mite ([1]; 40 mg/L): 100% |
